Results on 15 compounds are retold here after PubChem BioAssay AID248 (DTP/NCI, 2004).

The test system of this experiment is L1210 leukemia ip in BDF1 mice, survival T/C. As to the kind of experiment: NCI In Vivo Anticancer Drug Screen. Data for tumor model L1210 Leukemia (intraperitoneal) in B6D2F1 (BDF1) mice. The following applies: endpoint: mean survival time, higher = longer survival. Here is the method:
The antitumor activity of compounds was measured in mice bearing transplantable tumors. Survival or tumor size were measured and the results are expressed as the measurement made in the treated group (T) divided by the measurement made in the vehicle treated control group (C). The tumor model used in this assay is L1210 Leukemia (intraperitoneal) in B6D2F1 (BDF1) mice

The mark [1] stands for this setting: dose: 100.0 mg/kg/injection, schedule: Q01DX009 (ip), vehicle: saline with Tween-80.
The mark [2] stands for this setting: dose: 200.0 mg/kg/injection, schedule: Q01DX009 (ip), vehicle: saline with Tween-80.
[3] abbreviates: dose: 400.0 mg/kg/injection, schedule: Q01DX009 (ip), vehicle: saline with Tween-80.
Setting [4] is: dose: 100.0 mg/kg/injection, schedule: Q04DX003 (ip), vehicle: Klucel (hydroxypropylcellulose) (HPC).

Each structure is given as a SMILES string. Values joined by “and” are separate entries in the source; they are usually repeats but may differ in a detail not shown here. Identical values can stand only once. Toxic doses and inconclusive results are not listed.

With `COc1cc(C)c(OC)cc1C`, the T/C reads like this: (dose: 100.0 mg/kg/injection, schedule: Q04DX003 (ip), vehicle: saline with Tween-80) 99 % of control; (dose: 200.0 mg/kg/injection, schedule: Q04DX003 (ip), vehicle: saline with Tween-80) 99 % of control; (dose: 400.0 mg/kg/injection, schedule: Q04DX003 (ip), vehicle: saline with Tween-80) 94 % of control.
As for `CCC(=O)O[C@H]1CC[C@H]2[C@@H]3C[C@H](F)C4=CC(=O)CC[C@]4(C)[C@H]3CC[C@]12C`, the T/C is, setting by setting: under setting [1], 102 % of control; under setting [2], 93 % of control; under setting [3], 91 % of control.
For `O=C1OC(OC(=O)c2ccccc2)C(NC2CCCCC2)=C1Br` (stereo not drawn), in that order: 98 % of control, 96 % of control and 98 % of control.
Consider `O=S1(=O)CC(O)C(Cl)C1` (stereo not drawn), for which the T/C runs as follows: (dose: 50.0 mg/kg/injection, schedule: Q01DX009 (ip), vehicle: saline) 101 % of control; (dose: 100.0 mg/kg/injection, schedule: Q01DX009 (ip), vehicle: saline) 94 % of control; (dose: 100.0 mg/kg/injection, schedule: Q04DX003 (ip), vehicle: saline) 98 % of control; (dose: 200.0 mg/kg/injection, schedule: Q01DX009 (ip), vehicle: saline) 94 % of control; (dose: 200.0 mg/kg/injection, schedule: Q04DX003 (ip), vehicle: saline) 94 % of control.
On to `O=C(NCCO)C1OCOC2C(CO)OCOC12` (stereo not drawn), for which the T/C was 101 % of control (dose: 12.5 mg/kg/injection, schedule: Q04DX002 (ip), vehicle: saline); 101 % of control (dose: 25.0 mg/kg/injection, schedule: Q04DX002 (ip), vehicle: saline); 101 % of control (dose: 50.0 mg/kg/injection, schedule: Q04DX002 (ip), vehicle: saline); 93 % of control (dose: 100.0 mg/kg/injection, schedule: Q04DX002 (ip), vehicle: saline).
Regarding `O=C(Cn1ccc(=O)[nH]c1=O)Nc1nccs1`, the T/C is 102 % of control (dose: 6.25 mg/kg/injection, schedule: Q01DX009 (ip), vehicle: saline); 104 % of control (dose: 12.5 mg/kg/injection, schedule: Q01DX009 (ip), vehicle: saline); 122 % of control (dose: 12.5 mg/kg/injection, schedule: Q04DX003 (ip), vehicle: saline); 103 % of control (dose: 25.0 mg/kg/injection, schedule: Q01DX009 (ip), vehicle: saline); 95 % of control (dose: 25.0 mg/kg/injection, schedule: Q04DX003 (ip), vehicle: saline).
Consider `Cc1cc(C(=O)Nc2ccc(C3=NCCN3)cc2)ccc1C(=O)Nc1ccc(C2=NCCN2)cc1`, for which the T/C (dose: 3.75 mg/kg/injection, schedule: Q01DX Z (ip), vehicle: saline) is 98 % of control; the T/C (dose: 7.5 mg/kg/injection, schedule: Q01DX Z (ip), vehicle: saline) is 102 % of control; the T/C (dose: 15.0 mg/kg/injection, schedule: Q01DX Z (ip), vehicle: saline) is 119 % of control; the T/C (dose: 60.0 mg/kg/injection, schedule: Q01DX Z (ip), vehicle: saline) was 196 % of control; the T/C (dose: 120.0 mg/kg/injection, schedule: Q01DX Z (ip), vehicle: saline) is 157 % of control; the T/C (dose: 240.0 mg/kg/injection, schedule: Q01DX Z (ip), vehicle: saline) is 175 % of control.
In the case of `CCOP(=O)(OCC)C([O][Sb]([O]CC(C)Cl)[O]CC(C)Cl)c1ccc(OC)cc1` (stereo not drawn), the T/C was 101 % of control (dose: 25.0 mg/kg/injection, schedule: Q04DX003 (ip), vehicle: alcohol); 97 % of control (dose: 50.0 mg/kg/injection, schedule: Q04DX003 (ip), vehicle: alcohol); 103 % of control and 113 % of control (dose: 100.0 mg/kg/injection, schedule: Q04DX003 (ip), vehicle: alcohol).
As to `CC[CH2][Sn]([Cl])([Cl])[CH2]CC`, the T/C is 98 % of control (dose: 0.13 mg/kg/injection, schedule: Q01DX009 (ip), vehicle: saline); 112 % of control (dose: 0.25 mg/kg/injection, schedule: Q01DX009 (ip), vehicle: saline); 105 % of control and 108 % of control (dose: 0.5 mg/kg/injection, schedule: Q01DX009 (ip), vehicle: saline); 101 % of control (dose: 1.0 mg/kg/injection, schedule: Q01DX009 (ip), vehicle: saline); 101 % of control (dose: 2.0 mg/kg/injection, schedule: Q01DX009 (ip), vehicle: saline); 104 % of control (dose: 4.0 mg/kg/injection, schedule: Q01DX009 (ip), vehicle: saline).
Regarding `O=Nc1c(O)ccc2ccccc12`, the T/C is, setting by setting: (dose: 3.12 mg/kg/injection, schedule: Q01DX009 (ip), vehicle: Klucel (hydroxypropylcellulose) (HPC)) 90 % of control; (dose: 5.0 mg/kg/injection, schedule: Q01DX001 (ip), vehicle: saline) 98 % of control; (dose: 6.25 mg/kg/injection, schedule: Q01DX009 (ip), vehicle: Klucel (hydroxypropylcellulose) (HPC)) 95 % of control; (dose: 10.0 mg/kg/injection, schedule: Q01DX001 (ip), vehicle: saline) 104 % of control; (dose: 12.5 mg/kg/injection, schedule: Q01DX009 (ip), vehicle: Klucel (hydroxypropylcellulose) (HPC)) 92 % of control; (dose: 20.0 mg/kg/injection, schedule: Q01DX001 (ip), vehicle: saline) 95 % of control. The T/C was 94 % of control (dose: 25.0 mg/kg/injection, schedule: Q01DX001 (ip), vehicle: saline with Tween-80); 104 % of control (dose: 25.0 mg/kg/injection, schedule: Q01DX009 (ip), vehicle: Klucel (hydroxypropylcellulose) (HPC)); 101 % of control (dose: 40.0 mg/kg/injection, schedule: Q01DX001 (ip), vehicle: saline); 104 % of control (dose: 50.0 mg/kg/injection, schedule: Q01DX001 (ip), vehicle: saline with Tween-80); 106 % of control (dose: 80.0 mg/kg/injection, schedule: Q01DX001 (ip), vehicle: saline); 91 % of control (dose: 100.0 mg/kg/injection, schedule: Q01DX001 (ip), vehicle: saline with Tween-80).
Turning to `CCCCCCCCCCCCOC(=O)/C=C\C(=O)NC(N)=O`, the T/C is 102 % of control (dose: 25.0 mg/kg/injection, schedule: Q04DX003 (ip), vehicle: Klucel (hydroxypropylcellulose) (HPC)); 97 % of control (dose: 50.0 mg/kg/injection, schedule: Q04DX003 (ip), vehicle: Klucel (hydroxypropylcellulose) (HPC)); 105 % of control and 91 % of control under setting [4]; 96 % of control (dose: 150.0 mg/kg/injection, schedule: Q04DX003 (ip), vehicle: Klucel (hydroxypropylcellulose) (HPC)).
Consider `Nc1ccc(-c2ccc(N)c(Oc3ccccc3)c2)cc1Oc1ccccc1`, for which the T/C runs as follows: (dose: 100.0 mg/kg/injection, schedule: Q01DX001 (ip), vehicle: other) 92 % of control; (dose: 200.0 mg/kg/injection, schedule: Q01DX001 (ip), vehicle: other) 97 % of control; (dose: 400.0 mg/kg/injection, schedule: Q01DX001 (ip), vehicle: other) 94 % of control.
For the compound `O=[N+]([O-])c1ccc(C(O)Nc2nccs2)o1` (stereo not drawn), the T/C runs as follows: (dose: 25.0 mg/kg/injection, schedule: Q01DX009 (ip), vehicle: saline with Tween-80) 96 % of control; (dose: 50.0 mg/kg/injection, schedule: Q01DX009 (ip), vehicle: saline with Tween-80) 117 % of control.
Take `O=S(=O)(F)/C=C\c1ccccc1`: the T/C is 92 % of control (dose: 25.0 mg/kg/injection, schedule: Q01DX009 (ip), vehicle: acetone); 95 % of control (dose: 100.0 mg/kg/injection, schedule: Q01DX001 (ip), vehicle: acetone); 104 % of control (dose: 200.0 mg/kg/injection, schedule: Q01DX001 (ip), vehicle: acetone).
With `COC(=O)NS(=O)(=O)c1cccn1C`, the T/C (dose: 100.0 mg/kg/injection, schedule: Q01DX001 (ip), vehicle: Klucel (hydroxypropylcellulose) (HPC)) is 106 % of control; the T/C under setting [4] is 106 % of control; the T/C (dose: 200.0 mg/kg/injection, schedule: Q01DX001 (ip), vehicle: Klucel (hydroxypropylcellulose) (HPC)) is 104 % of control; the T/C (dose: 200.0 mg/kg/injection, schedule: Q04DX003 (ip), vehicle: Klucel (hydroxypropylcellulose) (HPC)) is 100 % of control; the T/C (dose: 400.0 mg/kg/injection, schedule: Q01DX001 (ip), vehicle: Klucel (hydroxypropylcellulose) (HPC)) was 104 % of control; the T/C (dose: 400.0 mg/kg/injection, schedule: Q04DX003 (ip), vehicle: Klucel (hydroxypropylcellulose) (HPC)) was 95 % of control.
